Data: patent US7776910B2, “Arylsulfonyl pyrrolidines as 5-HT6 inhibitors” (Roche Palo Alto LLC, priority 2006, dated 2010)
Where a name gives a salt, the structure may show the parent alone.

Legend:
[1] = molecular target: T1, recombinant human 5-HT6 receptor (Homo sapiens, UniProt P50406); assay: Radioligand binding studies, 5-HT6 ligand affinity ([3H]LSD competition); settings: [3H]LSD displacement, membranes of HEK293 cells expressing the receptor, pH 7.4, 37° C.; read-out: pKi for the 5-HT6 receptor (converted)
T1 construct: expressed in transfected cells
Protocol: (§1) This example illustrates in vitro radioligand binding studies of compound of formula I.
(§2) The binding activity of compounds of this invention in vitro was determined as follows. Duplicate determinations of 5-HT6 ligand affinity were made by competing for binding of [^3H]LSD in cell membranes derived from HEK293 cells stably expressing recombinant human 5-HT6 receptor. Duplicate determinations of 5-HT2A ligand affinity were made by competing for binding of [^3H]Ketanserin (3-(2-(4-(4-fluorobenzoyl)piperidinol)ethyl)-2,4(1H,3H)-quinazolinedione) in cell membranes derived from CHO-K1 cells stably expressing recombinant human 5-HT2A receptor. Membranes were prepared from HEK 293 cell lines by the method described by Monsma et al., Molecular Pharmacology, Vol. 43 pp. 320-327 (1993), and from CHO-K1 cell lines as described by Bonhaus et al., Br J. Pharmacol. June; 115(4):622-8 (1995).
(§3) For estimation of affinity at the 5-HT6 receptor, all determinations were made in assay buffer containing 50 mM Tris-HCl, 10 mM MgSO4, 0.5 mM EDTA, 1 mM ascorbic acid, pH 7.4 at 37° C., in a 250 microliter reaction volume. […]
(§4) Assay tubes containing [^3H] […] LSD or [^3H]Ketanserin were determined as radioactive counts per minute using Packard TopCount.
(§5) Displacement of [^3H]LSD or [^3H]Ketanserin from the binding sites was quantified by fitting concentration-binding data to a 4-parameter logistic equation: […]

[2] = molecular target: T2, recombinant human 5-HT2A receptor (Homo sapiens, UniProt P28223); assay: Radioligand binding studies, 5-HT2A ligand affinity ([3H]Ketanserin competition); settings: [3H]Ketanserin displacement, membranes of CHO-K1 cells expressing the receptor, pH 7.4, 32° C.; read-out: pKi for the 5-HT2A receptor (converted)
T2 construct: expressed in transfected cells
Protocol: as §1, §2, §3, §4, §5

T1 sequence (P50406 whole entry): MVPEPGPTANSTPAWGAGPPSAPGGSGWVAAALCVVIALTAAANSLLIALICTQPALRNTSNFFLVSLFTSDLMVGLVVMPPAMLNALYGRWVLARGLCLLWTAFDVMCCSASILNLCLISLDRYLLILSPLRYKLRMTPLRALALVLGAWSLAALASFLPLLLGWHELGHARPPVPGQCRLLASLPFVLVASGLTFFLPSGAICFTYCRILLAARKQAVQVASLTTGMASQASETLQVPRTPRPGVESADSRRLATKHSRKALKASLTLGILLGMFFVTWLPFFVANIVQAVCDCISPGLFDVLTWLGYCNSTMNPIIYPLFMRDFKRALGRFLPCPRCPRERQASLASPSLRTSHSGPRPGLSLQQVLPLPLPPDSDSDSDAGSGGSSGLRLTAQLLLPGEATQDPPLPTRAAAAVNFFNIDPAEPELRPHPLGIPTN
T2 sequence (P28223 whole entry): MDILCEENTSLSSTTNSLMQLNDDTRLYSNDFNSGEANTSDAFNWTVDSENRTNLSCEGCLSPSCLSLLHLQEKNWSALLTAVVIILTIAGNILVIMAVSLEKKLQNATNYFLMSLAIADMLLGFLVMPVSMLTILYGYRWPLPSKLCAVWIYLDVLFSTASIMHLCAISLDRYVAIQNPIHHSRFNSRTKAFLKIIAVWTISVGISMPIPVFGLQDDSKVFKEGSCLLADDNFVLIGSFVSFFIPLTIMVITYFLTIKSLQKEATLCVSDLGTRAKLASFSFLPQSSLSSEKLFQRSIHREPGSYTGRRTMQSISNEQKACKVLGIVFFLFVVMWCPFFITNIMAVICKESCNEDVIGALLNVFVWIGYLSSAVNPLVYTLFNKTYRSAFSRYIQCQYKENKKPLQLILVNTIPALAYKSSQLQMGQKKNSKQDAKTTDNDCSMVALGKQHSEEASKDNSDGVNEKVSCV

melting point [°C] | SMILES | also measured
56 to 58 | Cc1cc(S(=O)(=O)c2ccccc2)ccc1[C@@H]1CCN(S(C)(=O)=O)C1 [Compound 115, 3-(4-Benzenesulfonyl-2-methyl-phenyl)-1-methanesulfonyl-(S)-pyrrolidine] | –
– | CN1CC[C@@H](c2ccc(S(=O)(=O)c3ccc(O)cc3)cc2F)C1 [4-[3-Fluoro-4-(1-methyl-(S)-pyrrolidin-3-yl)-benzenesulfonyl]-phenol] | Ki [1]: ~0.1 nM
186 to 187.5 | Cc1cc(S(=O)(=O)c2ccc(O)cc2)ccc1C1CCN(C)C1 (centres unmarked) (as salt: HCl) [Compound 51, 4-[3-Methyl-4-(1-methyl-pyrrolidin-3-yl)-benzenesulfonyl]-phenol] | –
110 to 112.9 | Cc1cc(S(=O)(=O)c2ccc(O)c(Cl)c2)ccc1C1CCNC1 (centres unmarked) (as salt: HCl) [Compound 32, 2-Chloro-4-(3-methyl-4-pyrrolidin-3-yl-benzenesulfonyl)-phenol] | –
124.5 to 126.7 | CCS(=O)(=O)c1cccc(S(=O)(=O)c2ccc(C3CCNC3)c(O)c2)c1 (centres unmarked) (as salt: HCl) [Compound 20, 5-(3-Ethanesulfonyl-benzenesulfonyl)-2-pyrrolidin-3-yl-phenol] | –
239 to 241 | O=S(=O)(c1cccc(F)c1)c1ccc([C@@H]2CCNC2)c(O)c1 (as salt: HCl) [Compound 35, 5-(3-Fluoro-benzenesulfonyl)-2-(S)-pyrrolidin-3-yl-phenol] | –
125 to 128 | Cc1cc(S(=O)(=O)c2ccc(O)c(C(C)C)c2)ccc1C1CCNC1 (centres unmarked) [Compound 85, 2-Isopropyl-4-(3-methyl-4-pyrrolidin-3-yl-benzenesulfonyl)-phenol] | –
– | CCSc1cccc(S(=O)(=O)c2ccc(C3CCNC3)c(O)c2)c1 (centres unmarked) [5-(3-Ethylsulfanyl-benzenesulfonyl)-2-pyrrolidin-3-yl-phenol] | Ki [2]: ~0.891 nM
